Results from article PMC5686395, “Eukaryotic-type serine/threonine kinase mediated phosphorylation at Thr^169 perturbs mycobacterial guanylate kinase activity” (Bioscience Reports, 2017).

Tests used:
[1] = target: PknA-core (PknA-338) (Mycobacterium tuberculosis, UniProt P9WI83)
[2] = target: PknB (Mycobacterium tuberculosis, UniProt P9WI81)
Sequence of PknB (P9WI81 2-626): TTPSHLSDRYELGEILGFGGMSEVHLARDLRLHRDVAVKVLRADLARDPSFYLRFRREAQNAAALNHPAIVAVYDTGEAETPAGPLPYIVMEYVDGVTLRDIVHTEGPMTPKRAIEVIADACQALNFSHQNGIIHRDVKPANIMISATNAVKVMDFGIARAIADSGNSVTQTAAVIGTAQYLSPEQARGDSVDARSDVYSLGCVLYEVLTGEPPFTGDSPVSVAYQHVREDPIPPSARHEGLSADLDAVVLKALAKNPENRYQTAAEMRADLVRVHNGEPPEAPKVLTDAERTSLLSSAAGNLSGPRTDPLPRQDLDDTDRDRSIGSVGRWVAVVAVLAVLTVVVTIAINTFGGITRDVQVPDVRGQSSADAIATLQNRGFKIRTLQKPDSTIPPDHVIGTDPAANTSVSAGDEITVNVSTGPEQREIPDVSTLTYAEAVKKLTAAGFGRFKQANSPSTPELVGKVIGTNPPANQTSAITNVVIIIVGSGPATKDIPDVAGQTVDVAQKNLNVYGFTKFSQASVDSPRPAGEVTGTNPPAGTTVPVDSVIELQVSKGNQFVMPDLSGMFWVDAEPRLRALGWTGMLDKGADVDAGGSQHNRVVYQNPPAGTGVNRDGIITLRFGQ

Sequence of PknA-core (PknA-338) (P9WI83 1-338): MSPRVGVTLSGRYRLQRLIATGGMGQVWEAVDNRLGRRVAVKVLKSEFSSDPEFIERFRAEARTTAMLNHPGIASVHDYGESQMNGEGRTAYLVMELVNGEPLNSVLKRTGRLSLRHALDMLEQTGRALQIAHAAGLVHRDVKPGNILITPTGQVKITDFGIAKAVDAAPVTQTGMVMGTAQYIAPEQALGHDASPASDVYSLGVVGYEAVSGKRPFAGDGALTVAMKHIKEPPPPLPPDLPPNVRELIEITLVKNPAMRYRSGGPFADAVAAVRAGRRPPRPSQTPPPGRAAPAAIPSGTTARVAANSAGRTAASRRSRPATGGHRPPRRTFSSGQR

## Nc1ncnc2c1ncn2[C@@H]1O[C@H](COP(=O)(O)OP(=O)(O)OP(=O)(O)O)[C@@H](O)[C@H]1O [[γ-32P] ATP]
[1]
  in vitro kinase assay, SDS/PAGE and autoradiography: its incubation with PknA exhibited phosphorylation
[2]
  in vitro kinase assay, SDS/PAGE and autoradiography: PknB, another essential mycobacterial kinase, instead of PknA in the assay yielded weak p-mGmk
